What was measured:
Test in all cases: relative viability (nuclei count vs DMSO), 5 days (fraction); higher = more cells survive
Lapatinib + Olaparib = compound: CS(=O)(=O)CCNCc1ccc(-c2ccc3ncnc(Nc4ccc(OCc5cccc(F)c5)c(Cl)c4)c3c2)o1 [Lapatinib] + O=C(c1cc(Cc2n[nH]c(=O)c3ccccc23)ccc1F)N1CCN(C(=O)C2CC2)CC1 [Olaparib] (partner 8 µM)
Outline: (§1)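 For relative viability, nuclei counts in treated wells were divided by those in vehicle wells. Lung cancer cell lines had been pin-tool dosed in 1536-well plates the day after seeding and cultured for 5 days, then fixed and stained in one step (final 0.05% Triton X-100, 1% formaldehyde, 1 ug/ml Hoechst) and imaged at 4×. Doses were one drug alone or a fixed anchor-drug dose plus five library-drug doses (not always all listed) in √10 steps, and values are duplicate-plate medians.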

Wnt-C59 + Pictilisib = compound: CC1=NC=CC(=C1)C2=CC=C(C=C2)CC(=O)NC3=CC=C(C=C3)C4=CN=CC=C4 [Wnt-C59] + CS(=O)(=O)N1CCN(Cc2cc3nc(-c4cccc5[nH]ncc45)nc(N4CCOCC4)c3s2)CC1 [Pictilisib] (partner 1 µM)
Outline: as §1

Lapatinib + Luminespib = compound: CS(=O)(=O)CCNCc1ccc(-c2ccc3ncnc(Nc4ccc(OCc5cccc(F)c5)c(Cl)c4)c3c2)o1 [Lapatinib] + CCNC(=O)c1noc(-c2cc(C(C)C)c(O)cc2O)c1-c1ccc(CN2CCOCC2)cc1 [Luminespib] (partner 0.01 µM)
Outline: as §1

Lapatinib + Tozasertib = compound: CS(=O)(=O)CCNCc1ccc(-c2ccc3ncnc(Nc4ccc(OCc5cccc(F)c5)c(Cl)c4)c3c2)o1 [Lapatinib] + Cc1cc(Nc2cc(N3CCN(C)CC3)nc(Sc3ccc(NC(=O)C4CC4)cc3)n2)n[nH]1 [Tozasertib] (partner 0.1 µM)
Outline: as §1

## A549
Lapatinib + Olaparib; first compound 0.06325 µM
  relative viability: 0.217
Lapatinib + Olaparib; first compound 0.2 µM
  relative viability: 0.376
Lapatinib + Olaparib; first compound 0.6325 µM
  relative viability: 0.364
Lapatinib + Olaparib; first compound 2 µM
  relative viability: 0.269
Wnt-C59 + Pictilisib; first compound 0.001 µM
  relative viability: 0.534
Wnt-C59 + Pictilisib; first compound 0.01 µM
  relative viability: 0.541
Wnt-C59 + Pictilisib; first compound 0.03162 µM
  relative viability: 0.408
Wnt-C59 + Pictilisib; first compound 0.1 µM
  relative viability: 0.484

## NCI-H1299
Lapatinib + Olaparib; first compound 0.02 µM
  relative viability: 0.952
Lapatinib + Olaparib; first compound 0.06325 µM
  relative viability: 0.99
Lapatinib + Olaparib; first compound 0.2 µM
  relative viability: 0.93
Lapatinib + Olaparib; first compound 0.6325 µM
  relative viability: 0.967
Lapatinib + Olaparib; first compound 2 µM
  relative viability: 0.965
Wnt-C59 + Pictilisib; first compound 0.001 µM
  relative viability: 0.739
Wnt-C59 + Pictilisib; first compound 0.01 µM
  relative viability: 0.476
Wnt-C59 + Pictilisib; first compound 0.03162 µM
  relative viability: 0.756
Wnt-C59 + Pictilisib; first compound 0.1 µM
  relative viability: 0.793

## HCC-44
Lapatinib + Luminespib; first compound 0.06325 µM
  relative viability: 0.716
Lapatinib + Luminespib; first compound 0.2 µM
  relative viability: 1.14
Lapatinib + Luminespib; first compound 0.6325 µM
  relative viability: 0.965
Lapatinib + Luminespib; first compound 2 µM
  relative viability: 1.06
Lapatinib + Tozasertib; first compound 0.06325 µM
  relative viability: 0.622
Lapatinib + Tozasertib; first compound 0.2 µM
  relative viability: 0.81
Lapatinib + Tozasertib; first compound 0.6325 µM
  relative viability: 0.762
Lapatinib + Tozasertib; first compound 2 µM
  relative viability: 0.725
Lapatinib + Olaparib; first compound 0.02 µM
  relative viability: 0.981
Lapatinib + Olaparib; first compound 0.06325 µM
  relative viability: 1
Lapatinib + Olaparib; first compound 0.2 µM
  relative viability: 0.992
Lapatinib + Olaparib; first compound 0.6325 µM
  relative viability: 0.974
Lapatinib + Olaparib; first compound 2 µM
  relative viability: 0.867
Wnt-C59 + Pictilisib; first compound 0.001 µM
  relative viability: 0.597
Wnt-C59 + Pictilisib; first compound 0.01 µM
  relative viability: 0.639
Wnt-C59 + Pictilisib; first compound 0.03162 µM
  relative viability: 0.621
Wnt-C59 + Pictilisib; first compound 0.1 µM
  relative viability: 0.772

## NCI-H838
Lapatinib + Luminespib; first compound 0.02 µM
  relative viability: 0.25
Lapatinib + Luminespib; first compound 0.06325 µM
  relative viability: 0.341
Lapatinib + Luminespib; first compound 0.2 µM
  relative viability: 0.381
Lapatinib + Luminespib; first compound 0.6325 µM
  relative viability: 0.258
Lapatinib + Luminespib; first compound 2 µM
  relative viability: 0.283
Lapatinib + Tozasertib; first compound 0.02 µM
  relative viability: 0.235
Lapatinib + Tozasertib; first compound 0.06325 µM
  relative viability: 0.257
Lapatinib + Tozasertib; first compound 0.2 µM
  relative viability: 0.256
Lapatinib + Tozasertib; first compound 0.6325 µM
  relative viability: 0.258
Lapatinib + Tozasertib; first compound 2 µM
  relative viability: 0.221
Lapatinib + Olaparib; first compound 0.02 µM
  relative viability: 0.773
Lapatinib + Olaparib; first compound 0.06325 µM
  relative viability: 0.715
Lapatinib + Olaparib; first compound 0.2 µM
  relative viability: 0.771
Lapatinib + Olaparib; first compound 0.6325 µM
  relative viability: 0.746
Lapatinib + Olaparib; first compound 2 µM
  relative viability: 0.575
Wnt-C59 + Pictilisib; first compound 0.001 µM
  relative viability: 0.463
Wnt-C59 + Pictilisib; first compound 0.01 µM
  relative viability: 0.516
Wnt-C59 + Pictilisib; first compound 0.03162 µM
  relative viability: 0.439
Wnt-C59 + Pictilisib; first compound 0.1 µM
  relative viability: 0.42

## NCI-H2342
Lapatinib + Luminespib; first compound 0.02 µM
  relative viability: 0.579
Lapatinib + Luminespib; first compound 0.06325 µM
  relative viability: 0.607
Lapatinib + Luminespib; first compound 0.2 µM
  relative viability: 0.665
Lapatinib + Luminespib; first compound 0.6325 µM
  relative viability: 0.692
Lapatinib + Luminespib; first compound 2 µM
  relative viability: 0.703
Lapatinib + Tozasertib; first compound 0.02 µM
  relative viability: 0.495
Lapatinib + Tozasertib; first compound 0.06325 µM
  relative viability: 0.489
Lapatinib + Tozasertib; first compound 0.2 µM
  relative viability: 0.455
Lapatinib + Tozasertib; first compound 0.6325 µM
  relative viability: 0.538
Lapatinib + Tozasertib; first compound 2 µM
  relative viability: 0.354
Lapatinib + Olaparib; first compound 0.02 µM
  relative viability: 0.406
Lapatinib + Olaparib; first compound 0.06325 µM
  relative viability: 0.405
Lapatinib + Olaparib; first compound 0.2 µM
  relative viability: 0.398
Lapatinib + Olaparib; first compound 0.6325 µM
  relative viability: 0.433
Lapatinib + Olaparib; first compound 2 µM
  relative viability: 0.348

## NCI-H460
Lapatinib + Luminespib; first compound 0.02 µM
  relative viability: 0.0268
Lapatinib + Luminespib; first compound 0.06325 µM
  relative viability: 0.035
Lapatinib + Luminespib; first compound 0.2 µM
  relative viability: 0.0347
Lapatinib + Luminespib; first compound 0.6325 µM
  relative viability: 0.0312
Lapatinib + Luminespib; first compound 2 µM
  relative viability: 0.026
Lapatinib + Tozasertib; first compound 0.02 µM
  relative viability: 0.0815
Lapatinib + Tozasertib; first compound 0.06325 µM
  relative viability: 0.298
Lapatinib + Tozasertib; first compound 0.2 µM
  relative viability: 0.0669
Lapatinib + Tozasertib; first compound 0.6325 µM
  relative viability: 0.0896
Lapatinib + Tozasertib; first compound 2 µM
  relative viability: 0.06
Lapatinib + Olaparib; first compound 0.06325 µM
  relative viability: 0.406
Lapatinib + Olaparib; first compound 0.2 µM
  relative viability: 0.421
Lapatinib + Olaparib; first compound 0.6325 µM
  relative viability: 0.41
Lapatinib + Olaparib; first compound 2 µM
  relative viability: 0.262
Wnt-C59 + Pictilisib; first compound 0.001 µM
  relative viability: 0.33
Wnt-C59 + Pictilisib; first compound 0.01 µM
  relative viability: 0.327
Wnt-C59 + Pictilisib; first compound 0.03162 µM
  relative viability: 0.373
Wnt-C59 + Pictilisib; first compound 0.1 µM
  relative viability: 0.32

## CAL-12T
Lapatinib + Luminespib; first compound 0.06325 µM
  relative viability: 0.236
Lapatinib + Luminespib; first compound 0.2 µM
  relative viability: 0.477
Lapatinib + Luminespib; first compound 0.6325 µM
  relative viability: 0.235
Lapatinib + Luminespib; first compound 2 µM
  relative viability: 0.35
Lapatinib + Tozasertib; first compound 0.06325 µM
  relative viability: 0.274
Lapatinib + Tozasertib; first compound 0.2 µM
  relative viability: 0.333
Lapatinib + Tozasertib; first compound 0.6325 µM
  relative viability: 0.273
Lapatinib + Tozasertib; first compound 2 µM
  relative viability: 0.122
Lapatinib + Olaparib; first compound 0.02 µM
  relative viability: 0.703
Lapatinib + Olaparib; first compound 0.06325 µM
  relative viability: 0.745
Lapatinib + Olaparib; first compound 0.2 µM
  relative viability: 0.71
Lapatinib + Olaparib; first compound 0.6325 µM
  relative viability: 0.599
Lapatinib + Olaparib; first compound 2 µM
  relative viability: 0.556
Wnt-C59 + Pictilisib; first compound 0.001 µM
  relative viability: 0.259
Wnt-C59 + Pictilisib; first compound 0.03162 µM
  relative viability: 0.436
Wnt-C59 + Pictilisib; first compound 0.1 µM
  relative viability: 0.511

## NCI-H1650
Lapatinib + Luminespib; first compound 0.02 µM
  relative viability: 0.19
Lapatinib + Luminespib; first compound 0.06325 µM
  relative viability: 0.202
Lapatinib + Luminespib; first compound 0.2 µM
  relative viability: 0.198
Lapatinib + Luminespib; first compound 0.6325 µM
  relative viability: 0.2
Lapatinib + Luminespib; first compound 2 µM
  relative viability: 0.2
Lapatinib + Tozasertib; first compound 0.02 µM
  relative viability: 0.354
Lapatinib + Tozasertib; first compound 0.06325 µM
  relative viability: 0.325
Lapatinib + Tozasertib; first compound 0.2 µM
  relative viability: 0.399
Lapatinib + Tozasertib; first compound 0.6325 µM
  relative viability: 0.288
Lapatinib + Tozasertib; first compound 2 µM
  relative viability: 0.168
Lapatinib + Olaparib; first compound 0.02 µM
  relative viability: 0.73
Lapatinib + Olaparib; first compound 0.06325 µM
  relative viability: 0.847
Lapatinib + Olaparib; first compound 0.2 µM
  relative viability: 0.767
Lapatinib + Olaparib; first compound 0.6325 µM
  relative viability: 0.802
Lapatinib + Olaparib; first compound 2 µM
  relative viability: 0.621
Wnt-C59 + Pictilisib; first compound 0.001 µM
  relative viability: 0.549
Wnt-C59 + Pictilisib; first compound 0.01 µM
  relative viability: 0.53
Wnt-C59 + Pictilisib; first compound 0.03162 µM
  relative viability: 0.645
Wnt-C59 + Pictilisib; first compound 0.1 µM
  relative viability: 0.532

## NCI-H650
Lapatinib + Luminespib; first compound 0.06325 µM
  relative viability: 0.81
Lapatinib + Luminespib; first compound 0.2 µM
  relative viability: 0.729
Lapatinib + Luminespib; first compound 0.6325 µM
  relative viability: 0.862
Lapatinib + Luminespib; first compound 2 µM
  relative viability: 0.854
Lapatinib + Tozasertib; first compound 0.06325 µM
  relative viability: 0.648
Lapatinib + Tozasertib; first compound 0.2 µM
  relative viability: 0.781
Lapatinib + Tozasertib; first compound 0.6325 µM
  relative viability: 0.698
Lapatinib + Tozasertib; first compound 2 µM
  relative viability: 0.601
Lapatinib + Olaparib; first compound 0.06325 µM
  relative viability: 0.355
Lapatinib + Olaparib; first compound 0.2 µM
  relative viability: 0.372
Lapatinib + Olaparib; first compound 0.6325 µM
  relative viability: 0.397
Lapatinib + Olaparib; first compound 2 µM
  relative viability: 0.337
Wnt-C59 + Pictilisib; first compound 0.001 µM
  relative viability: 0.838
Wnt-C59 + Pictilisib; first compound 0.01 µM
  relative viability: 0.94
Wnt-C59 + Pictilisib; first compound 0.03162 µM
  relative viability: 0.982
Wnt-C59 + Pictilisib; first compound 0.1 µM
  relative viability: 0.685

## NCI-H2085
Lapatinib + Luminespib; first compound 0.06325 µM
  relative viability: 0.402
Lapatinib + Luminespib; first compound 0.2 µM
  relative viability: 0.396
Lapatinib + Luminespib; first compound 0.6325 µM
  relative viability: 0.447
Lapatinib + Luminespib; first compound 2 µM
  relative viability: 0.322
Lapatinib + Tozasertib; first compound 0.06325 µM
  relative viability: 0.748
Lapatinib + Tozasertib; first compound 0.2 µM
  relative viability: 0.73
Lapatinib + Tozasertib; first compound 0.6325 µM
  relative viability: 0.532
Lapatinib + Tozasertib; first compound 2 µM
  relative viability: 0.337
Lapatinib + Olaparib; first compound 0.02 µM
  relative viability: 0.744
Lapatinib + Olaparib; first compound 0.06325 µM
  relative viability: 0.795
Lapatinib + Olaparib; first compound 0.2 µM
  relative viability: 0.8
Lapatinib + Olaparib; first compound 0.6325 µM
  relative viability: 0.711
Lapatinib + Olaparib; first compound 2 µM
  relative viability: 0.581
Wnt-C59 + Pictilisib; first compound 0.001 µM
  relative viability: 0.502
Wnt-C59 + Pictilisib; first compound 0.01 µM
  relative viability: 0.449
Wnt-C59 + Pictilisib; first compound 0.03162 µM
  relative viability: 0.41
Wnt-C59 + Pictilisib; first compound 0.1 µM
  relative viability: 0.45

Source: the supplement of paper PMC10307832
